Laboratory results published in PubChem BioAssay AID602380 (Sanford-Burnham Center for Chemical Genomics, 2012).
The source made the active and inactive calls. How the calls were made is not given here.

Test: TIM10 isogenic strain growth inhibitors – luminescence, S. cerevisiae, counter-screen for tim23-1 inhibitor project, SAR follow-up (AID 602380)
Conditions: S. cerevisiae TIM10 isogenic control strain, BacTiter-Glo growth luminescence

For `Cn1c(SCc2cccc(/C(N)=N/OC(=O)c3ccc(Cl)cc3)c2)nnc1C(F)(F)F`, the IC50 was 3.59 µM.
`N/C(=N\OC(=O)c1cccc2ccccc12)c1ccc(Cl)cc1` showed an IC50 of 0.781 µM.
For `CN1CCN(c2nc(-c3cccnc3)nc3ccccc23)CC1`, the IC50 was > 99 µM (inactive).
With `N=c1c2c(-c3ccccc3)c(-c3ccccc3)n(Cc3ccco3)c2ncn1CCCN1CCOCC1` the IC50 was > 99 µM (inactive).
`C=C1CCc2c([nH]c3ccc(OCC(C)C)cc23)C1=O` gave an IC50 of 1.59 µM.
For `CCN(C(=O)c1cccc2ncccc12)c1c(N)n(Cc2ccccc2)c(=O)[nH]c1=O`, the IC50 was > 99 µM (inactive).
In the case of `Nc1cccc(Oc2ccc(Oc3cccc(N)c3)cc2)c1`, the IC50 is reported as > 99 µM (inactive).
`O=C(Nc1ccc(-c2cn3ccccc3n2)cc1)c1cccs1` showed an IC50 of 7.93 µM.
`CCOc1ccc(C(=O)O/N=C(\N)c2ccc(OC)cc2)cc1OCC` showed an IC50 of 5.57 µM.
With `Cc1ccc2nc(CSc3ncc(C(F)(F)F)cc3Cl)cc(=O)n2c1` the IC50 was > 99 µM (inactive).
For `Cc1ccc2nc(N3C(=O)CNC3=S)sc2c1`, the IC50 was 6.81 µM.
`N/C(=N\OC(=O)c1ccc2ncsc2c1)c1ccccc1` showed an IC50 of 9.17 µM.
With `Cc1nc2scc(C)n2c(=O)c1S(=O)(=O)Nc1ccc2c(c1)OCCO2` the IC50 was 80.5 µM.
`CCCCOc1ccc(C(=O)O/N=C(\N)c2cccc(Br)c2)cc1` gave an IC50 of 20.8 µM.
Work on `COc1cc2c(cc1OC)/C(=C/c1ccc(Cl)cc1)C(=O)OC2` yielded an IC50 of 2.61 µM.
Work on `N/C(=N\OC(=O)c1ccccc1)c1ccc(F)cc1F` yielded an IC50 of 16.7 µM.
For `O=C(CSc1cccc[n+]1[O-])Nc1ccccc1Oc1ccccc1`, the IC50 was 0.806 µM.
In the case of `N/C(=N\OC(=O)c1ccc(F)cc1)c1ccc(Br)cc1`, the IC50 is reported as 39.8 µM.
With `N/C(=N\OC(=O)c1ccc(Cl)c(Cl)c1)c1cccc(CS(=O)(=O)c2ccccn2)c1` the IC50 was 15.6 µM.
For `COc1ccc(/C=C/C(=O)Nc2ccc3c(c2)CCC3)cc1OC`, the IC50 was 11.2 µM.
`N/C(=N\OC(=O)c1ccc(Cl)cc1)c1ccc(S(=O)(=O)N2CCOCC2)cc1` showed an IC50 of 4.81 µM.
For `CC(C)Cn1cnc2c(c(-c3ccccc3)c(-c3ccccc3)n2Cc2ccco2)c1=N`, the IC50 was 34.3 µM.
For `Cc1nc(SCc2cc(=O)n3cc(Br)ccc3n2)c(C#N)c(C)c1C`, the IC50 was > 99 µM (inactive).
With `O=C(N/N=C/C(Cl)=C\c1ccccc1)c1cccs1` the IC50 was 9.48 µM.
With `O=C(Nc1ccc2nc(-c3ccc(Br)o3)[nH]c2c1)c1cccs1` the IC50 was 30.9 µM.
With `N#Cc1ccc(C2N=C(c3ccccc3)NO2)cc1` (stereo not given) the IC50 was > 99 µM (inactive).
`Cc1ccc(OCC(=O)O/N=C(\N)Cc2ccc(Cl)cc2)cc1` showed an IC50 of 20.4 µM.
With `O=c1cc(C(F)F)oc2c1ccc1ccccc12` the IC50 was > 99 µM (inactive).
For `O=C(Nc1nc2ccccc2s1)C1CCCN1S(=O)(=O)c1ccc(Cl)cc1` (stereo not given), the IC50 was 6.26 µM.
In the case of `COc1ccc([N+](=O)[O-])cc1NS(=O)(=O)c1c(C)nc2scc(C)n2c1=O`, the IC50 is reported as > 99 µM (inactive).
For `Cc1cccn2c(=O)cc(CSc3cc(C(=O)NC4CC4)c4ccccc4n3)nc12`, the IC50 was > 99 µM (inactive).
Molecule `Oc1ccc(Oc2ccc(Oc3ccc(O)cc3)cc2)cc1` has an IC50 of 5.69 µM.
In the case of `O=S(=O)(Nc1ccc(-c2cn3c(n2)SCC3)cc1)c1cccnc1`, the IC50 is reported as > 99 µM (inactive).
In the case of `Cc1nc2scc(C)n2c(=O)c1S(=O)(=O)Nc1ccc(N2CCOCC2)cc1`, the IC50 is reported as > 99 µM (inactive).
`CS(=O)(=O)Nc1ccc(/C(N)=N/OC(=O)c2ccccc2Cl)cc1` showed an IC50 of 66.4 µM.
In the case of `N/C(=N\OC(=O)c1ccc(Cl)cc1)c1ccc(-c2csnn2)cc1`, the IC50 is reported as > 99 µM (inactive).
With `CCN1CCc2nc3sc(C(=O)Nc4cc(Cl)ccc4OC)c(N)c3cc2C1` the IC50 was > 99 µM (inactive).
`O=c1cc(CSc2ccc(S(=O)(=O)N3CCOCC3)cn2)nc2ccc(Br)cn12` gave an IC50 of 42.9 µM.
In the case of `C(/C=C/c1ccccc1)=NNc1nc2ccccc2[nH]1`, the IC50 is reported as 8.98 µM.
For `Cc1nc2scc(C)n2c(=O)c1S(=O)(=O)Nc1ccc(F)cc1Cl`, the IC50 was 68.1 µM.
